A short description of data set [1]: Pharmacokinetic evaluation in C57BL/6 mice. Type of data set: in vivo. To be noted: male, mouse, plasma. On the procedure:
The pharmacokinetic parameters of the compounds in C57BL/6 mice were investigated.
C57BL/6 mice (male, 18-30 g, 7-9 weeks old, Shanghai Lingchang Biotechnology Co., Ltd.)
Formulations containing an aqueous solution of 1% DMSO/10% hydroxypropyl-β-cyclodextrin as the vehicle were administered by intravenous injection (1 mpk), formulations containing an aqueous solution of 1% DMSO/1% hydroxypropyl methylcellulose/0.2% Tween 80 as the vehicle were administered by gavage (5 mpk). Before the animal experiment, all animals were fasted, and fed 4 hours after administration; all animals were free to drink water. The time points of blood collection: intravenous injection administration group: 0.083, 0.25, 0.5, 1, 2, 4, 6, 8 and 24 hours; gavage administration group: 0.25, 0.5, 1, 2, 4, 6, 8 and 24 hours.
(§1) Whole blood samples (0.03 mL) were collected through the saphenous vein (or other suitable blood collection sites) at the prescribed time points, and all blood samples were added to labeled plastic centrifuge tubes containing K2-EDTA anticoagulant. After the blood samples were collected, the plasma was isolated by centrifugation, immediately placed in dry ice and stored at low temperature. All samples were analyzed by LC-MS/MS with a minimum detection limit of 2 nM. The non-compartmental model of WinNonlin™ Version 6.3 (Pharsight, Mountain View, Calif.) pharmacokinetic software was used to process the mean plasma concentration, and the linear-log trapezoid method was used to calculate the pharmacokinetic parameters.

Data set [2] in a line: Pharmacokinetic and tissue distribution in Lewis rats. To be noted: male, rat, lung / plasma, oral, 5 mg/kg, gavage 5 mpk, read-out: Ratio in lung blood. Type of data set: in vivo. On the procedure:
The pharmacokinetic and tissue distribution of the compounds in Lewis rats was tested.
Lewis rats (male, 202-239 g, 7-9 weeks old, Beijing Viton Lihua)
Formulations containing an aqueous solution of 1% hydroxypropyl methylcellulose/0.2% Tween 80 as the vehicle were administered by gavage (5 mpk). Before the animal experiment, all animals were fasted overnight, and fed 4 hours after administration; all animals were free to drink water. The time points of blood collection: danirixin administration group: 0.25, 1, 8 hours; gavage administration group: 0.5, 1, 4 hours.
as §1, with “(0.2” for “(0.03”, “separated” for “isolated”, “log-linear” for “linear-log”

For the next data set, the system named is PPE-induced COPD model. The experiment in a line: Therapeutic effect on PPE-induced COPD model, flow cytometry of inflammatory cells. Type of data set: in vivo, C57BL/6 mice. To be noted: PPE-induced mouse COPD model, daily gavage 4 weeks, high dose (120 mpk). The method, then:
The therapeutic effect of the compounds on PPE-induced COPD model in C57BL/6 mice was tested. Animals: C57BL/6 mice (female, 17.5-18.5 g, 6-8 weeks old) Drugs: Porcine pancreas elastase (PPE) (sigma, 0.068 U/μL); compound 1 in FIG. 1, FIG. 2 and FIG. 3 is danirixin; compound 2 is WX006A. Grouping: (1) COPD model group (porcine pancreatic elastase model group) • (2) PPE+ danirixin (40 mpk) • (3) PPE+ danirixin (120 mpk) • (4) PPE+WX006A (4 mpk) • (5) PPE+WX006A (12 mpk) 1. Modeling method: PPE was administered through by drip transfusion at the back of the tongue. 2. Administration method: an aqueous solution of 1% DMSO/1% hydroxypropyl methylcellulose/0.2% Tween 80 was used as the vehicle; the animals were daily administered with a volume of 200 μL/animal by gavage for 4 weeks. 3. End point of the experiment: On the 29th day, the mice were euthanized, samples were collected, and flow cytometry was performed. The blood, alveolar lavage fluid and lung tissue of the mice were collected after 4 weeks of administration to determine the percentage of inflammatory cells. 1) Alveolar lavage cells: the mice were euthanized. […] 3) The cells were counted and the cell suspensions were transferred into flow cytometry tubes. […] 5) After washing the cells, the percentage of neutrophils and monocytes in CD45^+ cells was determined using a flow cytometer.
Background: Flow cytometry measures light scatter and fluorescence of single cells or particles in a stream.

Structures are written as SMILES.

As usually defined, the bioavailability is the share of a dose that reaches the circulation, judged against a reference dose that is usually intravenous. For `Cc1c(F)cccc1NC(=O)Nc1ccc(Cl)c(S(=O)(=O)[C@H]2CCCNC2)c1O` [Danirixin, danirixin, reference compound], in data set [1] (intravenous 1 mpk / gavage 5 mpk study), the clearance is 42.5 mL/min/kg. The half-life in data set [1] (intravenous 1 mpk / gavage 5 mpk study, read-out: Half-life T1/2 (converted)) is 7.43 h. Moreover, the AUC in data set [1] (intravenous 1 mpk / gavage 5 mpk study, route not stated, unit printed shifted under first column, read-out: Area under the drug concentration time curve (AUC)) was 1.58 µM·h. Further, in data set [1] (po, 5 mg/kg, gavage 5 mpk vs intravenous 1 mpk, read-out: Bioavailability (F)), the bioavailability was 34.3%. In data set [2], the Kp is 1.57. In addition, in the data set with PPE-induced COPD model, the “proportion of monocytes in the alveolar lavage fluid” value is listed as “significant effect of reducing” and the “proportion of neutrophils in the alveolar lavage fluid” value was “significant effect of reducing”.

(Values after patent publication US11136315B2, “CXCR2 antagonist” (MEDSHINE DISCOVERY INC., priority 2018, dated 2021).)
